Measured values: article PMC11359809, “Probing the molecular basis for signal transduction through the Zinc-Activated Channel (ZAC)” (Biochemical pharmacology, 2021)
Substitutions are numbered along the chain they refer to.

Assays:
ZAC^H139A = biological target: T1, ZAC^H139A (Homo sapiens, UniProt Q401N2, A152T/H163A); experiment: TEVC in oocytes, ZAC H139A mutant; assay type: cell-based
T1 construct: expressed in transfected cells; host or cells: Xenopus oocytes injected with cRNA (pUNIV vector)
Experimental: (§1) The recordings were performed at room temperature.
(§2) Analysis of the data from the TEVC recordings were performed using Clampfit software version 10.5 (Molecular Devices, Crawley, UK) and GraphPad Prism version 7.0c (GraphPad Software, La Jolla, CA). Unless otherwise stated, the inward currents induced by agonists in oocytes were normalized to the maximal response elicited by a specific agonist (agonist Imax) on each oocyte. Concentration-response and concentration-inhibition curves were fitted in GraphPad Prism by nonlinear regression using the equation for sigmoidal dose-response with variable slope. Each data point represents the mean ± S.E.M. value of recordings performed on at least five oocytes in total from at least two different batches. […] The null hypothesis was rejected at P < 0.05, and the differences between the means were analyzed by Tukey’s multiple comparisons test.
(§3) The putative involvement of candidate residues in Clusters 1, 2, 3 and 4 in Zn^2+ binding to ZAC was investigated in by an elaborate alanine mutagenesis scanning. […] The determined IpH 4.0 value was used in part as a control and in part to enable the distinction of ZAC mutants non-responsive to Zn^2+ due to elimination of their ability to bind the metal ion from those where the mutation had eliminated cell surface expression and/or disrupted overall functionality of the receptor complex. […]

ZAC^L9′A = biological target: T2, ZAC^L9′A (Homo sapiens, UniProt Q401N2, A152T/L270A); experiment: TEVC in oocytes, ZAC L9′A mutant; assay type: cell-based; conditions: agonist; n = 7
T2 construct: expressed in transfected cells; host or cells: Xenopus oocytes injected with cRNA (pUNIV vector)
T2 sequence (Q401N2 26-412 A152T/L270A): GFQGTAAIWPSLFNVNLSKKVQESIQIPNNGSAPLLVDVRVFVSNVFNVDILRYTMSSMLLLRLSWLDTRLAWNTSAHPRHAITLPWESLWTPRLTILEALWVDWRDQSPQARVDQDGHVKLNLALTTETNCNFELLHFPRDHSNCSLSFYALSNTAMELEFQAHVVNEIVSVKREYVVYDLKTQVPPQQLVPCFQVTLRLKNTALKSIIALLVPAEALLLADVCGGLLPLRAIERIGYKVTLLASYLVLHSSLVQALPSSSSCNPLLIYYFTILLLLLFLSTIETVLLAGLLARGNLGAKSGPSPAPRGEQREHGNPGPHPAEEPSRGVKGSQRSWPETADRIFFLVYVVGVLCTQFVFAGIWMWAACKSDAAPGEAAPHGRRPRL
Experimental: as §1
(§4) Analysis of the data from the TEVC recordings were performed using Clampfit software version 10.5 (Molecular Devices, Crawley, UK) and GraphPad Prism version 7.0c (GraphPad Software, La Jolla, CA). Unless otherwise stated, the inward currents induced by agonists in oocytes were normalized to the maximal response elicited by a specific agonist (agonist Imax) on each oocyte. Concentration-response and concentration-inhibition curves were fitted in GraphPad Prism by nonlinear regression using the equation for sigmoidal dose-response with variable slope. Each data point represents the mean ± S.E.M. value of recordings performed on at least five oocytes in total from at least two different batches. For the data where statistical analysis was performed, a one-way ANOVA was used. The null hypothesis was rejected at P < 0.05, and the differences between the means were analyzed by Tukey’s multiple comparisons test.

ZAC^D105A = biological target: T3, ZAC^D105A (Homo sapiens, UniProt Q401N2, A152T/D129A); experiment: TEVC in oocytes, ZAC D105A mutant; assay type: cell-based
T3 construct: expressed in transfected cells; host or cells: Xenopus oocytes (cRNA injection, pUNIV vector)
Experimental: as §1, §2, §3

ZAC^D118A = biological target: T4, ZAC^D118A (Homo sapiens, UniProt Q401N2, A152T/D142A); experiment: TEVC in oocytes, ZAC D118A mutant; assay type: cell-based
T4 construct: expressed in transfected cells; host or cells: Xenopus oocytes injected with cRNA (pUNIV vector)
Experimental: as §1, §2, §3

ZAC^L9′T = biological target: T5, ZAC^L9′T (Homo sapiens, UniProt Q401N2, A152T/L270T); experiment: TEVC in oocytes, ZAC L9′T mutant; assay type: cell-based; conditions: agonist; n = 6
T5 construct: expressed in transfected cells; host or cells: Xenopus oocytes (cRNA injection, pUNIV vector)
T5 sequence (Q401N2 26-412 A152T/L270T): T2 sequence (Q401N2 26-412 A152T/L270A) with A245T
Experimental: as §1, §4

ZAC^H210A = biological target: T6, ZAC^H210A (Homo sapiens, UniProt Q401N2, A152T/H144A); experiment: TEVC in oocytes, His120 Ala mutant; assay type: cell-based; conditions: 10 mM Zn^2+
T6 construct: expressed in transfected cells; host or cells: Xenopus oocytes injected with cRNA (pUNIV vector)
Experimental: as §1, §2, §3

ZAC/hα1-Gly = experiment: TEVC in oocytes expressing ZAC/hα1-Gly chimera; assay type: cell-based, human
Experimental: as §1, §4
Initially, we constructed four chimeric subunits fusing the ZAC ECD or TMD-ICD with the complementary domains from either the m5-HT3A or the hα1 GlyR subunit: ZAC/m5-HT3A, m5-HT3A/ZAC, ZAC/hα1-Gly and hα1-Gly/ZAC (Fig. 1A). […] (Fig. 1A).

ZAC^H144A = biological target: T7, ZAC^H144A (Homo sapiens, UniProt Q401N2, A152T/H168A); experiment: TEVC in oocytes, ZAC H144A mutant; assay type: cell-based
T7 construct: expressed in transfected cells; host or cells: Xenopus oocytes injected with cRNA (pUNIV vector)
Experimental: as §1, §2, §3

[1] = sustained (4 min) application of 30 μM Zn^2+

T4 sequence (Q401N2 26-412 D142A/A152T): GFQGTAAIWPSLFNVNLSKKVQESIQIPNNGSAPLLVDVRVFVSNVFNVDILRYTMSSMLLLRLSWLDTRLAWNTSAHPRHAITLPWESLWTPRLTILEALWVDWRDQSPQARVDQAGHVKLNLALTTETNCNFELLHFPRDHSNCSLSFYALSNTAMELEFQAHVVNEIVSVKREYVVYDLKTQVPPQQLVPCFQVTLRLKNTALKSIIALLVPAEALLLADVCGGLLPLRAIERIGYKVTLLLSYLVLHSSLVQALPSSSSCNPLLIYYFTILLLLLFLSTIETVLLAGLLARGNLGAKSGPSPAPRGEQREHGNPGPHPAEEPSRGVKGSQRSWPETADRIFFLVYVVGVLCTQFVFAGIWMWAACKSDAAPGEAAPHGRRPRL
T6 sequence (Q401N2 26-412 H144A/A152T): as the sequence (Q401N2 26-412 D142A/A152T) above, with A117D, H119A counted along it
T7 sequence (Q401N2 26-412 A152T/H168A): as the sequence (Q401N2 26-412 D142A/A152T) above, with A117D, H143A counted along it
T3 sequence (Q401N2 26-412 D129A/A152T): as the sequence (Q401N2 26-412 D142A/A152T) above, with D104A, A117D counted along it
T1 sequence (Q401N2 26-412 A152T/H163A): as the sequence (Q401N2 26-412 D142A/A152T) above, with A117D, H138A counted along it

SMILES: [Cl-].[Cl-].[Zn+2] [Zn^2+, ZnCl2]
- functional properties as agonist compared to WT ZAC (ZAC^H139A): not altered significantly
- EC50 (ZAC^L9′A): 230 µM
- nH ± S.E.M. (Hill slope) (ZAC^L9′A): 1.2 ± 0.2
- pEC50 ± S.E.M. (ZAC^L9′A): 3.64 ± 0.08
- concentration-response relationship compared to WT ZAC (ZAC^D105A): did not differ significantly
- agonist properties compared to WT ZAC (ZAC^D118A): did not differ substantially
- EC50 (ZAC^L9′T): 66 µM
- nH ± S.E.M. (Hill slope) (ZAC^L9′T): 0.7 ± 0.4
- pEC50 ± S.E.M. (ZAC^L9′T): 4.18 ± 0.34
- I10 mM Zn2+ (ZAC^H210A): 5–30 nA
- Imax (current amplitude evoked by saturating agonist) (ZAC/hα1-Gly; 30 μM Zn^2+, n = 11): 0.24 ± 0.03 μA
- nH ± S.E.M. (Hill slope) (ZAC/hα1-Gly; agonist, n = 10): 1.6 ± 0.4
- pEC50 ± S.E.M. (ZAC/hα1-Gly; agonist, n = 10): 5.36 ± 0.09
- left-shift of concentration-response relationship (higher agonist potency) (ZAC/hα1-Gly; compared to WT ZAC): ~100 fold
- Iresidual, 4 min (ZAC/hα1-Gly; [1]): 63 ± 6 % of Ipeak
- Δtpeak-to-plateau (ZAC/hα1-Gly; [1]): 56 ± 3.8 s
- Δtstart-to-peak (ZAC/hα1-Gly; [1]): 10 ± 1.9 s
- functional properties as agonist compared to WT ZAC (ZAC^H144A): not altered significantly
